{"source": "patent US4452812A", "about": "“Organic complex of platinum, its preparation and its use for treating malignant tumors” (Sanofi, priority 1980, dated 1984)", "key": {"[1]": {"test": "Stability in sodium chloride solution", "type": "physicochemical", "conditions": "9% sodium chloride", "procedure": "This compound has an exceptionally high degree of solubility.\nThe solutions of these compounds were prepared extemporaneously."}, "[2]": {"test_system": "rat", "test": "Acute toxicity in the rat", "type": "in vivo, rat (Sprague-Dawley)", "procedure": "Acute toxicity, one single injection of the compound, was measured using Swiss female mice (Evic-Ceba, Bordeaux) of 21 to 23 g. and Sprague-Dawley rats. Ten animals were treated for each dose studied."}, "[3]": {"test_system": "leukemia L 1210", "test": "Anti-tumour activity, leukemia L 1210, i.p. graft, i.p. treatment", "procedure": "[…] females (CNRS, Orleans) of 20 to 22 g\n(a) i.p. graft--i.p. treatment\n10^5 cells were grafted intraperitoneally on D0 and intraperitoneal treatment was carried out 24 hours later, D1, in one single injection.\nPHD and PHM were suspended in a 4% Klucel (hydroxy propyl cellulose) solution (the word \"Klucel\" is a registered trademark of Hercules Incorporated, Delaware, U.S.A.).\nThe solutions of these compounds were prepared extemporaneously. The increase in life span, ILS (%), were calculated in comparison with the controls by the following formula: [formula] Deaths were recorded until day 30 for L 1210 tumour and until day 60 for S180 tumour."}, "[4]": {"test_system": "baboon (ear, Corti organ)", "test": "Ototoxicity test in the baboon (auditory potentials, echocochleography)", "type": "in vivo", "conditions": "baboon No 3, 200 mg/kg, D31", "procedure": "An ototoxicity test was carried out on baboon No. 3 (200 mg/kg) on D31. This test comprised the following: (a) Registering the auditory potentials when the ear was submitted to 1500 stimuli at 90, 80, 70, 60, 50, 40, 30, 20 and 10 decibels. The results gave the latency times for conduction from the ear to the brain. (b) Performing the same kind of test by echocochleography. This analysis was much more accurate than the previous one because it was only carried out in the Corti organ (cochlea). Frequencies of 8000, 4000, 2000 and 1000 Hertz at 90, 70, 50, 30, 20 and 10 decibels were used. Measurements were made using a Racia Medelec Empled MK4 1026. […] The properties of PHIC compared to those of PDD can be summarized as follows: […]"}, "[5]": {"test_system": "DNA", "test": "Platinum fixed on DNA of L 1210 cells in vivo", "design": "species or system mouse (DBA/2)", "conditions": "PDD 9 mg/kg, PHIC 150 mg/kg; two hours after treatment on D3", "procedure": "DBA/2 mice received 10^6 L 1210 cells on D0 and were treated three days later with an amount of platinum compound equal to the LD0 in the healthy mouse. Two hours after treatment on D3, the animals were sacrificed. […] Platinum was monitored by atomic absorption for whole cells and also on the DNA which was purified by phenol extraction. […] Under these conditions, one fixed platinum atom per 3000 nucleotides was found, i.e. a total of 1% of the amount which penetrated the cells was complexed to DNA. […] 10^-16 of platinum per cell."}, "[6]": {"test_system": "L 1210 cells", "test": "Cytotoxicity on L 1210 cells in culture", "type": "cell-based", "conditions": "read-out: ID50 (reduces by 50% the rate of growth of the cells); usually 24 to 48 hours contact"}, "[7]": {"test_system": "renal and hepatic parenchyma", "test": "Renal and hepatic toxicity", "type": "in vivo, mouse (Swiss female)", "procedure": "It was thus of interest to compare the effects of the novel compound of the invention with those of the already known compounds listed above on the kidney and the liver, i.e. the organs in which the greatest amount of platinum accumulates.\nSwiss female mice (Evic-Ceba, Bordeaux) of 20 to 22 g were treated by intraperitoneal route D0 and then sacrificed on D1, D4 and D10.\nSlices 5 microns thick were coloured with hemalun eosine stain."}}, "note": "“Also recorded” adds a separate entry of the source."}
{"smiles": "NC1CCCCC1N.O=C([O-])CC(C(=O)[O-])C([O-])C(=O)[O-].[H+].[H+].[Pt+2]", "note": "(stereo not drawn) [PHIC, cis-isocitrato (1,2-diaminocyclohexane) platinum (II)]", "values": [{"measurement": "change to chlorinated derivative in sodium chloride solution", "setting": "[1]", "value": "changing in 24 hours to a yellow chlorinated derivative which precipitates"}, {"measurement": "LD10", "setting": "[2]; I.P.", "value": 61, "unit": "mg/kg"}, {"measurement": "LD50", "setting": "[2]; I.P.", "value": 143, "unit": "mg/kg"}, {"measurement": "LD90", "setting": "[2]; I.P.", "value": 278, "unit": "mg/kg"}, {"measurement": "LD10", "setting": "[2]; I.V.", "value": 111, "unit": "mg/kg"}, {"measurement": "LD50", "setting": "[2]; I.V.", "value": 173, "unit": "mg/kg"}, {"measurement": "LD90", "setting": "[2]; I.V.", "value": 244, "unit": "mg/kg"}, {"measurement": "LD50", "setting": "[2]; P.O.", "value": "> 1 000 mg/Kg"}, {"measurement": "ILS", "setting": "[3]; 5 mg/kg, single i.p. on D1", "value": 16, "unit": "%"}, {"measurement": "ILS", "setting": "[3]; 10 mg/kg, single i.p. on D1", "value": 40, "unit": "%"}, {"measurement": "ILS", "setting": "[3]; 25 mg/kg, single i.p. on D1", "value": 59, "unit": "%"}, {"measurement": "ILS", "setting": "[3]; 50 mg/kg, single i.p. on D1", "value": 79, "unit": "%"}, {"measurement": "toxic death", "setting": "[3]; 100 mg/kg i.p., excluded from ILS calculation", "value": "one toxic death"}, {"measurement": "ILS", "setting": "[3]; 100 mg/kg, single injection on D1", "value": 129, "unit": "%"}, {"measurement": "Survivals", "setting": "[3]; L 1210, 5 mg/kg i.p. on D1, day 30", "value": 0, "unit": "%"}, {"measurement": "Survivals", "setting": "[3]; L 1210, 10 mg/kg i.p. on D1, day 30", "value": 0, "unit": "%"}, {"measurement": "Survivals", "setting": "[3]; L 1210, 25 mg/kg i.p. on D1, day 30", "value": 0, "unit": "%"}, {"measurement": "Survivals", "setting": "[3]; L 1210, 50 mg/kg i.p. on D1, day 30", "value": 0, "unit": "%"}, {"measurement": "Survivals", "setting": "[3]; L 1210, 100 mg/kg i.p. on D1, day 30", "value": 20, "unit": "%"}, {"measurement": "anti-tumour activity (in words)", "setting": "[3]; leukemia L 1210", "value": "Very marked anti-tumor activity; also recorded: exerts the anti-tumour activity"}, {"measurement": "Surviving animals having received L 1210 leukaemia and S 180 sarcoma", "setting": "[3]; summary for L 1210 and S 180", "value": "Yes"}, {"measurement": "ototoxic effect", "setting": "[4]", "value": "No ototoxic effect was detected"}, {"measurement": "Number of fixed platinum atoms per nucleotide on DNA", "setting": "[5]", "value": "1/3500"}, {"measurement": "amount that penetrated the cells which was complexed to DNA", "setting": "[5]", "value": 1, "unit": "%"}, {"measurement": "nucleotides per one fixed platinum atom", "setting": "[5]", "value": 3500, "unit": "nucleotides"}, {"measurement": "IC50", "setting": "[6]", "value": 0.42, "unit": "µM"}, {"measurement": "nephrotoxicity", "setting": "[7]; LD0 level, mice", "value": "No"}, {"measurement": "renal lesion", "setting": "[7]; at a dose 20 times greater than that of PDD", "value": "does not cause any renal lesion"}, {"measurement": "renal and hepatic alterations", "setting": "[7]; i.p. at ~LD0 (mg/kg): PDD 8, PAC 100, PHM 50, PHD 4, PHS 5, PHC 120, PHIC 150, D1, D4, D10", "value": "did not provoke any significant alterations"}]}
